In general, kinact refers to the maximal first-order rate at which the target is inactivated.

Experimental findings from patent US20240254138A1, “TRICYCLIC PYRIMIDINES AS CYCLIN-DEPENDENT KINASE 7 (CDK7) INHIBITORS” (JANSSEN PHARMACEUTICA NV, priority 2021, published 2024) are described below.

Where two headings read alike, the source gives them in different places. A value given as a limit tells only on which side of the number the result lay.

For test [1], the target named is CDK7/cyclinH/MAT1 trimeric complex (Homo sapiens, UniProt P50613). In words: In vitro CDK7 assay, potency of irreversible covalent inhibitors (kinact/KI), coupled PK/LDH ADP readout at 340 nm. The note with it: for Ki: CDK7 (20 nM enz.) (KI, μM); for kinact: read-out: CDK7 (20 nM enz.) (kinact, s^−1), 20 nM enzyme.
For test [2], the system named is RNA Polymerase II Serine 5 phosphorylation in A549 cells overexpressing CDK7-mutant (C312S). In words: Imaging-based cellular RNA PolII Ser5 phosphorylation assay in A549 cells overexpressing CDK7-mutant (C312S). The note with it: RNA PolII Ser5 phosphorylation, averaged over all measurements; for IC50: Homo sapiens, A549, A549 cells overexpressing CDK7-mutant (C312S), read-out: CDK7_A549 mutant hCDK7(pIC50) (converted). The test is classed as cell-based, human. The method, boiled down:
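Readout was automated imaging of anti-phospho-Ser5 Rpb1 CTD immunofluorescence, with IC50 fitted to % control versus concentration. Cells were A549 stably overexpressing non-covalently targetable CDK7 C312S alongside wild-type, exposed to compound 3 h at 37 °C. DMSO and 10 μM reference compound served as controls.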

The subject of test [3] is RNA Polymerase II Serine 5 phosphorylation (Rpb1 CTD, downstream substrate of CDK7) in A549 cells. In words: Imaging-based cellular RNA PolII Ser5 phosphorylation assay in A549 cells. The test is classed as cell-based, human. Conditions: wild-type CDK7, RNA PolII Ser5 phosphorylation, averaged over all measurements; for IC50: Homo sapiens, A549, A549 cells, read-out: CDK7_A549 Wild-type CDK7 (pIC50) (converted). In a few lines:
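IC50 derived by fitting % control (DMSO high, 10 μM reference low) against concentration, with Hill slope. Readout: high-content imaging of phospho-Ser5 Rpb1 CTD antibody staining in fixed, permeabilized A549 cells exposed to compound 3 h after 20 h culture in 1% FBS DMEM.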

Where [4] appears, read: read-out: CDK7 (20 nM enz.) (kinact/KI, M^−1*s^−1), 20 nM enzyme.
The mark [5] stands for this setting: read-out: CDK7 (20 nM enz.) (kobs/[I], M^−1*s^−1), 20 nM enzyme.

CDK7/cyclinH/MAT1 trimeric complex, sequence (P50613 whole entry): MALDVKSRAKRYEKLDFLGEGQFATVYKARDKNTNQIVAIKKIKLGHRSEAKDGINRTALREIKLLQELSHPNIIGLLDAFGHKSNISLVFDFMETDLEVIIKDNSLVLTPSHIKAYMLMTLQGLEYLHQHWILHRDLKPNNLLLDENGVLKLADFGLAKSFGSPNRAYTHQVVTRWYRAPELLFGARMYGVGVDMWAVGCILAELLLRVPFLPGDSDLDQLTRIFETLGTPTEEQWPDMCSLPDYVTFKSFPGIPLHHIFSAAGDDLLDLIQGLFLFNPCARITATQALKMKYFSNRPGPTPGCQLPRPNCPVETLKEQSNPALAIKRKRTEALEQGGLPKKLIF
CDK7/cyclinH/MAT1 trimeric complex, sequence (P51946 whole entry partner): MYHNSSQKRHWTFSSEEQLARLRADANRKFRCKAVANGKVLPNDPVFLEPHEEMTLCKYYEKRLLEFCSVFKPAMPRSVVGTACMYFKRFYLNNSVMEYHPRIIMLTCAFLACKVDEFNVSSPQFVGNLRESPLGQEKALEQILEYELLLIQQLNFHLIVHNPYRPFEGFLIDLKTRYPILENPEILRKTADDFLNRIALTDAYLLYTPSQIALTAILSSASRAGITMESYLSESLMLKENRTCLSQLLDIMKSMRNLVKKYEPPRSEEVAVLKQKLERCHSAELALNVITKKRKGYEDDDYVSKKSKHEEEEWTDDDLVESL
CDK7/cyclinH/MAT1 trimeric complex, sequence (P51948 whole entry partner): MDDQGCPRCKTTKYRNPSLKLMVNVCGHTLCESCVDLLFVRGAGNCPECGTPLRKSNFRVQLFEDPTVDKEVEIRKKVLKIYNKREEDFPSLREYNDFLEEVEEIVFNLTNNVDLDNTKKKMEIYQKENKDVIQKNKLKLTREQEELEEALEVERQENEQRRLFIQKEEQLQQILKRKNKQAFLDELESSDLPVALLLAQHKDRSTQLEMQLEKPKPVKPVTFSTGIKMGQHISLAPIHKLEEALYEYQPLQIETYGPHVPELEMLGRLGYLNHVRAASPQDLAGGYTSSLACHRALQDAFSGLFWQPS

`C=CC(=O)N1CC(N2CCC(c3cc4c(c(C)n3)OCc3c(N5CCOCC5)ccnc3N4)N(C)CC2)C1` (stereo not drawn) [Compound 367] gave a Ki in test [1] (20 nM enzyme) of 0.0482 µM. Also, the kinact in test [1] was determined as 3.37e-05 s⁻¹. Further, the kinact/KI in test [1] (setting [4]) came to 698 M⁻¹ s⁻¹. Further, the IC50 was 10.5 µM in test [2] and 75.9 nM in test [3].

`CC#CC(=O)N1CC(N2CC(c3cc4c(c(CCC)n3)OCc3c(N5CCOCC5)ccnc3N4)C2)C1` [Compound 368] registered a Ki in test [1] (20 nM enzyme) of 0.103 µM. Also, the kinact in test [1] stood at 4.43e-05 s⁻¹. Besides, the kinact/KI in test [1] (setting [4]) is 429 M⁻¹ s⁻¹. Besides, the results for the IC50 in test [2] and in test [3] were more than 10 µM and 191 nM, respectively.

Turning to `CC#CC(=O)N1CC(N2CCC(c3cc4c(c(C)n3)OCc3c(N5CCOCC5)ccnc3N4)N(C)CC2)C1` (stereo not drawn) [Compound 373], the Ki in test [1] (20 nM enzyme) came out at 0.113 µM. The kinact in test [1] came out at 1.66e-05 s⁻¹. In addition, the kinact/KI in test [1] (setting [4]) was determined as 147 M⁻¹ s⁻¹. Moreover, the IC50 in test [2] is more than 10 µM; in test [3], 269 nM.

The molecule `C=CC(=O)N1CCC(n2cc(-c3cc(C)c4c(c3)Nc3nccc(N5CCOCC5)c3CO4)cn2)CC1` [Compound 379] returned a Ki in test [1] (20 nM enzyme) of 0.0333 µM. Moreover, the kinact in test [1] was determined as 1.58e-05 s⁻¹. In test [1] (setting [4]), the kinact/KI worked out at 475 M⁻¹ s⁻¹. For the same molecule, the IC50 in test [2] is 7.08 µM; in test [3], 224 nM.

The molecule `CC#CC(=O)N1CC(n2cc(-c3cc4c(c(C)n3)OC(C)c3c(N5CCOCC5)ccnc3N4)cn2)C1` (stereo not drawn) [Compound 380] yielded a Ki in test [1] (20 nM enzyme) of 0.241 µM. Further, the kinact in test [1] was 4.27e-05 s⁻¹. The kinact/KI in test [1] (setting [4]) is 177 M⁻¹ s⁻¹. Besides, the IC50 was more than 10 µM in test [2] and 162 nM in test [3].

With `C=CC(=O)N1CCC(N2CCN(c3ccc4c(c3)Nc3nccc(N5CCOCC5)c3CO4)CC2)CC1` [Compound 382], the Ki in test [1] (20 nM enzyme) came out at 3.26 µM. Besides, the kinact in test [1] turned out to be 4.7e-05 s⁻¹. Moreover, the kinact/KI in test [1] (setting [4]) was determined as 14.4 M⁻¹ s⁻¹. Besides, the figures for the IC50 in test [2] and in test [3] were more than 10 µM and 204 nM, respectively.

In test [1] (20 nM enzyme), `C=CC(=O)N1CCC(N2CC(c3cc4c(c(C#N)n3)OCc3c(N5CCOCC5)ccnc3N4)C2)CC1` [Compound 384] displayed a Ki of 0.03 µM. In test [1], the inactivation rate constant (kinact) worked out at 7.49e-06 s⁻¹. In addition, in test [1] (setting [4]), the kinact/KI came out at 249 M⁻¹ s⁻¹. In addition, the IC50 in test [2] is 5.13 µM; in test [3], 355 nM.

Consider `CC#CC(=O)N1CCC(N2CC(c3cc4c(c(C#N)n3)OCc3c(N5CCOCC5)ccnc3N4)C2)CC1` [Compound 385], for which the Ki in test [1] (20 nM enzyme) was found to be 0.0211 µM. Moreover, the kinact in test [1] came to 1.2e-05 s⁻¹. Besides, in test [1] (setting [4]), the kinact/KI turned out to be 570 M⁻¹ s⁻¹. Moreover, the IC50 was 4.27 µM in test [2] and 158 nM in test [3].

In turn, `C=CC(=O)N1CCC(N2CCN(c3cc4c(c(C)n3)OCc3c(N5CCOCC5)ccnc3N4)CC2)CC1` [Compound 389] displayed a Ki in test [1] (20 nM enzyme) of 0.0199 µM. Further, in test [1], the kinact turned out to be 2.13e-05 s⁻¹. In addition, in test [1] (setting [4]), the kinact/KI was found to be 1070 M⁻¹ s⁻¹. In addition, the IC50 in test [2] is more than 10 µM; in test [3], 141 nM.

Regarding `C=CC(=O)N1CCN(C2CCN(c3cc4c(c(C)n3)OCc3c(N5CCOCC5)ccnc3N4)CC2)CC1` [Compound 391], the Ki in test [1] (20 nM enzyme) was found to be 0.0205 µM. Moreover, the maximal inactivation rate constant (kinact) in test [1] was found to be 2.25e-05 s⁻¹. Further, the kinact/KI in test [1] (setting [4]) was 1100 M⁻¹ s⁻¹. The IC50 was more than 10 µM in test [2] and approximately 61.7 nM in test [3].

Regarding `CC#CC(=O)N1CCC(N2CCN(c3cc4c(c(C)n3)OCc3c(N5CCOCC5)ccnc3N4)CC2)CC1` [Compound 393], the Ki in test [1] (20 nM enzyme) worked out at 0.0477 µM. Besides, the kinact in test [1] turned out to be 2.18e-05 s⁻¹. Also, in test [1] (setting [4]), the kinact/KI is 457 M⁻¹ s⁻¹. For the same molecule, the IC50 is more than 10 µM in test [2] and 105 nM in test [3].

Consider `CC#CC(=O)N1CCN(C2CN(c3cc4c(c(C)n3)OCc3c(N5CCOCC5)ccnc3N4)C2)CC1` [Compound 394], for which the Ki in test [1] (20 nM enzyme) was found to be 0.313 µM. The kinact in test [1] was determined as 1.25e-05 s⁻¹. In addition, the kinact/KI in test [1] (setting [4]) worked out at 39.9 M⁻¹ s⁻¹. Also, the IC50 in test [2] was more than 10 µM; in test [3] it was 339 nM.

For the molecule `CC#CC(=O)N1CCN(C2CCN(c3cc4c(c(C)n3)OCc3c(N5CCOCC5)ccnc3N4)CC2)CC1` [Compound 396], in test [1] (20 nM enzyme), the Ki was determined as 0.0643 µM. For the same molecule, the kinact in test [1] was determined as 5.18e-05 s⁻¹. The kinact/KI in test [1] (setting [4]) turned out to be 807 M⁻¹ s⁻¹. The IC50 was more than 10 µM in test [2] and 93.3 nM in test [3].

Take `CC#CC(=O)N1CCC(n2cc(-c3cc4c(c(C)n3)OCc3c(N5CCOCC5)ccnc3N4)cn2)CC1` [Compound 399]: in test [1] (20 nM enzyme), the Ki worked out at 0.0839 µM. Further, the kinact in test [1] was 6.61e-06 s⁻¹. Moreover, in test [1] (setting [4]), the kinact/KI worked out at 78.8 M⁻¹ s⁻¹. Further, the IC50 was more than 10 µM in test [2] and 447 nM in test [3].

In test [1] (20 nM enzyme), `CC#CC(=O)N1CC(N2CCC(c3cc4c(c(C5CC5)n3)OCc3c(C5CCOCC5)ccnc3N4)CC2)C1` [Compound 400] yielded a Ki of 0.0914 µM. Moreover, the kinact in test [1] was 5.02e-05 s⁻¹. Also, the kinact/KI in test [1] (setting [4]) was determined as 549 M⁻¹ s⁻¹. In addition, the IC50 in test [2] is more than 10 µM; in test [3] it was 105 nM.

Molecule `CC#CC(=O)N1CC(N2CCC(c3cc4c(c(C)n3)OCc3c(C5CCOCC5)ccnc3N4)CC2)C1` [Compound 410] came in with a Ki in test [1] (20 nM enzyme) of 0.203 µM. The kinact in test [1] worked out at 6.11e-05 s⁻¹. Also, the kinact/KI in test [1] (setting [4]) amounted to 300 M⁻¹ s⁻¹. Also, the IC50 in test [2] was more than 10 µM; in test [3], 174 nM.

For `CC#CC(=O)N1CCC(n2ccc(-c3cc4c(c(C)n3)OCc3c(N5CCOCC5)ccnc3N4)cc2=O)CC1` [Compound 414], in test [1] (20 nM enzyme), the Ki is 0.0611 µM. The kinact in test [1] was determined as 4.36e-05 s⁻¹. Moreover, the kinact/KI in test [1] (setting [4]) is 714 M⁻¹ s⁻¹. Besides, the values for the IC50 in test [2] and in test [3] were more than 10 µM and 251 nM, respectively.

As to `CC#CC(=O)N1CC(n2cc(-c3cc(C#N)c4c(c3)Nc3nccc(N5CCOCC5)c3C(C)O4)cn2)C1` (stereo not drawn) [Compound 417], the Ki in test [1] (20 nM enzyme) turned out to be 0.0223 µM. Also, the kinact in test [1] was 1.51e-05 s⁻¹. Moreover, the kinact/KI in test [1] (setting [4]) is 678 M⁻¹ s⁻¹. Besides, the IC50 in test [2] is 2.95 µM; in test [3] it was 58.9 nM.

As for `COC(=O)/C=C/C(=O)N1CC(N2CCC(c3cc4c(c(C)n3)OCc3c(-c5cnn(C)c5)ccnc3N4)CC2)C1` [Compound 431], the kinact/KI in test [1] (setting [5]) was 1170 M⁻¹ s⁻¹. Further, the IC50 in test [2] was more than 10 µM; in test [3], 55 nM.

For `CCOC(=O)/C=C/C(=O)N1CC(N2CCC(c3cc4c(c(C)n3)OCc3c(-c5cnn(C)c5)ccnc3N4)CC2)C1` [Compound 435], the kinact/KI in test [1] (setting [5]) was 856 M⁻¹ s⁻¹. Also, the values for the IC50 in test [2] and in test [3] were more than 10 µM and 69.2 nM, respectively.

`Cc1nc(C2CCN(C3CN(C(=O)/C=C/C(=O)OC(C)C)C3)CC2)cc2c1OCc1c(-c3cnn(C)c3)ccnc1N2` [Compound 436] registered a Ki in test [1] (20 nM enzyme) of 0.311 µM. In test [1], the kinact came to 4.3e-05 s⁻¹. For the same molecule, in test [1] (setting [4]), the kinact/KI turned out to be 138 M⁻¹ s⁻¹. For the same molecule, the results for the IC50 in test [2] and in test [3] were more than 10 µM and 575 nM, respectively.

The molecule `C=CC(=O)N1CCC(C2CN(c3cc4c(c(C)n3)OCc3c(N5CCOCC5)ccnc3N4)C2)CC1` [Compound 439] returned a Ki in test [1] (20 nM enzyme) of 0.401 µM. Also, the kinact in test [1] came out at 1.01e-05 s⁻¹. For the same molecule, the kinact/KI in test [1] (setting [4]) was determined as 25.2 M⁻¹ s⁻¹. The IC50 in test [2] is more than 10 µM; in test [3], 1100 nM.

As for `C=CC(=O)N1CCC(N2CC(c3cc4c(c(C(F)(F)F)n3)OCc3c(N5CCOCC5)ccnc3N4)C2)CC1` [Compound 453], in test [1] (20 nM enzyme), the “CDK7 (20 nM enz.) (kinact, s^−1)” value came out at 3.153e-05 s⁻¹; the “CDK7 (20 nM enz.) (kinact/KI, M^−1*s^−1)” value stood at 439.69 M⁻¹ s⁻¹; the Ki was found to be 0.0717 µM. For the same molecule, in test [2] (A549 cells overexpressing CDK7-mutant (C312S)), the “CDK7_A549 mutant hCDK7(pIC50)” value amounted to 5.54. For the same molecule, the “CDK7_A549 Wild-type CDK7 (pIC50)” value in test [3] (A549 cells) is given as 7.13.
